Measured values taken from patent EP4818159A1 (Kissei Pharmaceutical Co., Ltd., priority 2023, dated 2025).
Read-outs that look alike come from different tables or passages of the source.

How the values were obtained:
human TSHR = target: T1, human TSHR (Homo sapiens, UniProt P16473); assay: Antagonist activity using TSH-induced cAMP production in human TSHR-stably expressing CHO cells; type: cell-based; details: human TSH final concentration of 50 ng/mL, cAMP production rate
T1 construct: expressed in transfected cells
Procedure: Measurement of antagonist activity using TSH-induced cAMP production in human TSHR-stably expressing CHO cells as an indicator
The gene sequence (reference number NM_000369.2) of human TSHR was inserted into the multiple cloning site of pcDNA3.1(+). The prepared plasmid vector was introduced into CHO cells using a lipofection method to establish human TSHR-stably expressing CHO cells. The obtained cells were seeded at 5 x 10^4 cells/well in a 96-well poly-D-lysine-coated plate, and cultured in an F12 culture medium containing 10% FBS, 400 µg/mL of G418, 50 U/mL of penicillin and 50 µg/mL of streptomycin under conditions of 37°C and 5% CO2 for 1 day. The culture medium was removed, and the cells were then washed twice with 100 µL of an assay buffer (Hanks' Balanced Salt Solution containing 20 mM HEPES and 1 mM IBMX) per well. 30 µL of an assay buffer containing a test compound was added to the well, and incubation was performed at room temperature for 15 minutes. Then, 30 µL of an assay buffer containing human TSH (a final concentration of 50 ng/mL, R&D Systems, Inc.) was added, and incubation was performed at 37°C for 1 hour. The supernatant was removed, a Lysis and Detection Buffer 2 (Cisbio) was added, and incubation was performed at room temperature for 1 hour to prepare a cell lysate. According to the instruction manual of a cAMP Gs HiRange kit (Cisbio), the cell lysate, d2-labeled cAMP and anti-cAMP Europium Cryptate labeled antibodies (Cisbio) were reacted in a 384-well white microplate. Then, a fluorescence intensity ratio (measurement wavelength 665 nm/620 nm) was measured using a multi-plate reader (PHERAstar FSX, BMG LABTECH Japan). The fluorescence intensity ratio of each sample was converted to a cAMP content using a standard curve. The cAMP content was converted as a percentage of the control value to calculate a cAMP production rate. The cAMP production rate was plotted against the test compound concentration using Prism (Graph Pad Software Inc.) to calculate the IC50 value. In the tables, IC50<3.0 µM was indicated as A, and 3.0 µM≤IC50<30 µM was indicated as B. If activity was observed but the IC50 value could not be calculated, it was indicated as C.

[1] = cited from earlier work

T1 sequence (P16473 21-764): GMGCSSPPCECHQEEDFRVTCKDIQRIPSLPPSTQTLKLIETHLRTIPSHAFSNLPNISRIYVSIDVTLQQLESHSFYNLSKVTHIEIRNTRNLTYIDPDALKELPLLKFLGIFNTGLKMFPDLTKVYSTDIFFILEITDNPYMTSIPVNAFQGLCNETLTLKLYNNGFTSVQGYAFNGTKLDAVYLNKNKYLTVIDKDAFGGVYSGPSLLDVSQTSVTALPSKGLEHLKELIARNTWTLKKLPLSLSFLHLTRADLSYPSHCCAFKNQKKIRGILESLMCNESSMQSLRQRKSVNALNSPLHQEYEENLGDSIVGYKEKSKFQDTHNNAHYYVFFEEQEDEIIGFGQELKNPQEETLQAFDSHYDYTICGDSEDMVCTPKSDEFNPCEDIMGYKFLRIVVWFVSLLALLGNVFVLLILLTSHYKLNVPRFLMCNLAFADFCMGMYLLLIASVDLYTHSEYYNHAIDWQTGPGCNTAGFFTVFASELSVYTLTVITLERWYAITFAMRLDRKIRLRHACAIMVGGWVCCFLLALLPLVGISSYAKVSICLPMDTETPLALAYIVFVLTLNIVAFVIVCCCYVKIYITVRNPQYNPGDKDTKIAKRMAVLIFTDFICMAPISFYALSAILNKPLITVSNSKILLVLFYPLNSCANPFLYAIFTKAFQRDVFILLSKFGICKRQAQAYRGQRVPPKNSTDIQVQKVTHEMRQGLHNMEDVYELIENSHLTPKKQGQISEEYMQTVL

Compound | IC50 (human TSHR) | blood T4 concentration lowering effect ([1]; mice in which a TSH-releasing hormone (TRH) has been administered) | blood T4 concentration lowering effect ([1]; mice in which a thyroid stimulating antibody M22 has been administered)
CN1C(=O)[C@H](NC2=NC(=O)CN2)Cc2cccc(Oc3cc(F)ccc3Cl)c21 [Example 33, (R)-8-(2-chloro-5-fluorophenoxy)-1-methyl-3-((4-oxo-4,5-dihydro-1H-imidazole-2-yl)amino)-3,4-dihydroquinoline-2(1H)-one] | 3 to 30 µM |  | 
CN1C(=O)[C@H](Nc2ncc[nH]2)Cc2cccc(Oc3cc(F)ccc3Cl)c21 [Example 34, (R)-3-((1H-imidazole-2-yl)amino)-8-(2-chloro-5-fluorophenoxy)-1-methyl-3,4-dihydroquinoline-2(1H)-one] | 3 to 30 µM |  | 
CN1C(=O)[C@H](NC(N)=O)Cc2cccc(CCc3ccccc3)c21 [Example 35, (R)-1-(1-methyl-2-oxo-8-phenethyl-1,2,3,4-tetrahydroquinoline-3-yl)urea] | 3 to 30 µM |  | 
CN1C(=O)[C@H](NC(N)=O)Cc2sc(Br)c(Cc3cc(F)ccc3Cl)c21 [Example 39, (R)-1-(2-bromo-3-(2-chloro-5-fluorobenzyl)-4-methyl-5-oxo-4,5,6,7-tetrahydrothieno[3,2-b]pyridin-6-yl)urea] | < 3 µM |  | 
CC(c1cc(F)ccc1Cl)c1nsc2c1N(C)C(=O)[C@H](NC(N)=O)C2 (stereo partly drawn) [Example 43, 1-((6R)-3-(1-(2-chloro-5-fluorophenyl)ethyl)-4-methyl-5-oxo-4,5,6,7-tetrahydroisothiazolo[4 ,5-b]pyridine-6-yl)urea] | < 3 µM |  | 
COc1ccc(C2Nc3ccccc3C(=O)N2Cc2ccco2)cc1COc1c(C)cc(NC(C)=O)cc1C (stereo not shown) [NCGC00242364] |  | blood T4 concentration lowering effect | blood T4 concentration lowering effect

Further lines, with some results ahead:

IC50 (human TSHR) | Compound | blood T4 concentration lowering effect ([1]; mice in which a TSH-releasing hormone (TRH) has been administered) | blood T4 concentration lowering effect ([1]; mice in which a thyroid stimulating antibody M22 has been administered)
< 3 µM | CN1C(=O)[C@H](NC(N)=O)Cc2csc(Cc3cc(F)ccc3Cl)c21 [Example 36, (R)-1-(7-(2-chloro-5-fluorobenzyl)-1-methyl-2-oxo-1,2,3,4-tetrahydrothieno[3,4-b]pyridine-3-yl)urea] |  | 
< 3 µM | CN1C(=O)[C@H](NC(N)=O)Cc2scc(Cc3cc(F)ccc3Cl)c21 [Example 37, (R)-1-(3-(2-chloro-5-fluorobenzyl)-4-methyl-5-oxo-4,5,6,7-tetrahydrothieno[3,2-b]pyridine-6-yl)urea] |  | 
< 3 µM | Cc1sc2c(c1Cc1cc(F)ccc1Cl)N(C)C(=O)[C@H](NC(N)=O)C2 [Example 38, (R)-1-(3-(2-chloro-5-fluorobenzyl)-2,4-dimethyl-5-oxo-4,5,6,7-tetrahydrothieno[3,2-b]pyridin-6-yl)urea] |  | 
< 3 µM | CN1C(=O)[C@H](NC(N)=O)Cc2sc(C#N)c(Cc3cc(F)ccc3Cl)c21 [Example 40, (R)-1-(3-(2-chloro-5-fluorobenzyl)-2-cyano-4-methyl-5-oxo-4,5,6,7-tetrahydrothieno[3,2-b]pyridin-6-yl)urea] |  | 
< 3 µM | CN1C(=O)[C@H](NC(N)=O)Cc2sc(CO)c(Cc3cc(F)ccc3Cl)c21 [Example 41, (R)-1-(3-(2-chloro-5-fluorobenzyl)-2-(hydroxymethyl)-4-methyl-5-oxo-4,5,6,7-tetrahydrothieno[3,2-b]pyridin-6-yl)urea] |  | 
< 3 µM | CN1C(=O)C(NC(N)=O)Cc2scc(C(=O)c3cc(F)ccc3Cl)c21 (stereo not shown) [Example 42, 1-(3-(2-chloro-5-fluorobenzoyl)-4-methyl-5-oxo-4,5,6,7-tetrahydrothieno[3,2-b]pyridin-6-yl) urea] |  | 
